# In PubChem BioAssay (NCI):
#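 Test compounds were applied to cells in 96-well plates for 48 hours at 5 doses. GI50 is the concentration that inhibits growth by half. TGI: total growth inhibition.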
# How the values were obtained:
# Assay in all cases: inhibition of tumour cell growth, NCI panel, 48 h
# UACC-257 melanoma = system: UACC-257 melanoma
# ACHN renal = system: ACHN renal
# UO-31 renal = system: UO-31 renal
# NCI-H23 lung = system: NCI-H23 lung
# EKVX NSCLC = system: EKVX NSCLC
# OVCAR-8 ovarian = system: OVCAR-8 ovarian
# HOP-92 NSCLC = system: HOP-92 NSCLC
# DU-145 prostate = system: DU-145 prostate
# U251 CNS = system: U251 CNS
# IGROV1 ovarian = system: IGROV1 ovarian
Structure (SMILES),GI50 (UACC-257 melanoma),TGI (UACC-257 melanoma),GI50 (ACHN renal),TGI (ACHN renal),GI50 (UO-31 renal),TGI (UO-31 renal),GI50 (NCI-H23 lung),TGI (NCI-H23 lung),GI50 (EKVX NSCLC),TGI (EKVX NSCLC),GI50 (OVCAR-8 ovarian),TGI (OVCAR-8 ovarian),GI50 (HOP-92 NSCLC),TGI (HOP-92 NSCLC),GI50 (DU-145 prostate),TGI (DU-145 prostate),GI50 (U251 CNS),TGI (U251 CNS),GI50 (IGROV1 ovarian),TGI (IGROV1 ovarian)
Cc1[nH]c2ccccc2c1CO,24.1 µM,60.2 µM,22.8 µM,88.8 µM,10.9 µM,31.7 µM,18.6 µM,46 µM,20.9 µM,70.7 µM,31 µM,> 100 µM,14.6 µM,40.9 µM,0.0457 µM,18.1 µM,21.2 µM,43.9 µM,–,–
Oc1nc(N2CCOCC2)sc1/C=C1\C=Nc2ccccc21,> 100 µM,> 100 µM,> 100 µM,> 100 µM,> 100 µM,> 100 µM,> 100 µM,> 100 µM,> 100 µM,> 100 µM,> 100 µM,> 100 µM,–,–,> 100 µM,> 100 µM,> 100 µM,> 100 µM,> 100 µM,> 100 µM
COc1ccc(C(=O)/C=C/c2cc(-c3ccc(OC)c(OC)c3)n[nH]2)cc1OC,2.16 µM,5.02 µM,1.59 µM,3.83 µM,1.5 µM,3.8 µM,2.25 µM,5.7 µM,–,–,2.63 µM,22.4 µM,1.97 µM,8.12 µM,1.64 µM,4.8 µM,1.2 µM,2.63 µM,3.13 µM,53.8 µM
NC1=NN(c2ccccc2)C(=O)C1C(=O)C(=O)Nc1ccccc1 (centres undefined),–,> 100 µM,–,> 100 µM,–,> 100 µM,–,> 100 µM,–,> 100 µM,–,> 100 µM,–,> 100 µM,–,–,–,> 100 µM,–,> 100 µM
COc1ccc(C2(Cl)C(Cl)(C(F)(F)F)C2(Cl)C(F)(F)F)cc1 (centres undefined),–,26.5 µM,–,30.4 µM,–,29.5 µM,–,27.8 µM,–,31.6 µM,–,25.2 µM,–,27.1 µM,–,–,–,28.2 µM,–,30.8 µM
COc1cc(CSc2nc3ccc(Cl)cc3c(=O)n2Cc2ccccc2)cc(OC)c1OC,8.47 µM,> 100 µM,4.23 µM,34.2 µM,4.4 µM,> 100 µM,8.48 µM,> 100 µM,–,–,5.18 µM,> 100 µM,1.93 µM,9.16 µM,4.46 µM,> 100 µM,4.36 µM,35.7 µM,10.2 µM,> 100 µM
C=C(C)CC(C(=O)O)c1ccc(C)cc1 (centres undefined),–,> 100 µM,–,> 100 µM,–,–,–,> 100 µM,–,> 100 µM,–,> 100 µM,–,> 100 µM,–,–,–,> 100 µM,–,> 100 µM
C[C@]12Cc3conc3C(O)=C1CC[C@@H]1C2CC[C@@]2(C)C1CC[C@@H]2O (some centres undefined),–,> 100 µM,–,> 100 µM,–,53.3 µM,–,64.3 µM,–,64.7 µM,–,88.5 µM,–,63.6 µM,–,–,–,64.4 µM,–,> 100 µM
Cn1cnc([N+](=O)[O-])c1Sc1n[nH]c(-c2ccc(Cl)cc2)n1,–,39.6 µM,–,41.7 µM,–,60.5 µM,–,37.9 µM,–,79.9 µM,–,32.4 µM,–,37.6 µM,–,–,–,48.9 µM,–,62.3 µM
COc1ccc(C)c2sc(N(Cc3cccnc3)C(=O)c3ccc(C#N)cc3)nc12,56 µM,> 100 µM,34.7 µM,> 100 µM,23.4 µM,> 100 µM,43.5 µM,> 100 µM,–,–,48.1 µM,> 100 µM,20.3 µM,> 100 µM,51.9 µM,> 100 µM,42.3 µM,> 100 µM,52 µM,> 100 µM
Cc1ccc(/C(=N/NS(=O)(=O)c2cc(C)c(Cl)cc2Cl)Sc2cc(Cl)c(C)cc2S(N)(=O)=O)cc1,> 100 µM,> 100 µM,86.4 µM,> 100 µM,> 100 µM,> 100 µM,> 100 µM,> 100 µM,70.9 µM,> 100 µM,> 100 µM,> 100 µM,–,–,49.7 µM,> 100 µM,> 100 µM,> 100 µM,> 100 µM,> 100 µM
CC(=O)N1c2ccccc2N(C(C)=O)C1c1ccc(C2N(C(C)=O)c3ccccc3N2C(C)=O)[nH]1,–,> 100 µM,–,–,–,> 100 µM,–,> 100 µM,–,> 100 µM,–,> 100 µM,–,> 100 µM,–,–,–,> 100 µM,–,> 100 µM
CCN1/C(=C/C(C)=C/c2sc3ccc4ccccc4c3[n+]2CC)Sc2ccc3ccccc3c21,0.0115 µM,0.0916 µM,0.147 µM,0.614 µM,0.181 µM,0.571 µM,0.108 µM,1.19 µM,–,–,0.067 µM,0.83 µM,0.163 µM,0.612 µM,0.142 µM,0.631 µM,0.108 µM,0.336 µM,0.146 µM,0.404 µM
C=CC12CCCCC1CC(C(=O)OC)=C(O)C2 (centres undefined),–,> 100 µM,–,> 100 µM,–,> 100 µM,–,> 100 µM,–,> 100 µM,–,> 100 µM,–,> 100 µM,–,–,–,> 100 µM,–,> 100 µM
CCOC(=O)C1CC(=O)C=C2CCCCC21 (centres undefined),–,> 100 µM,–,> 100 µM,–,> 100 µM,–,> 100 µM,–,> 100 µM,–,> 100 µM,–,> 100 µM,–,–,–,> 100 µM,–,> 100 µM
C=CCCn1nc(-c2ccccc2)oc1=O,–,> 100 µM,–,> 100 µM,–,> 100 µM,–,> 100 µM,–,> 100 µM,–,> 100 µM,–,> 100 µM,–,–,–,> 100 µM,–,> 100 µM
CC(C)(C)c1cc(C[P+](c2ccccc2)(c2ccccc2)c2ccccc2)cc(C(C)(C)C)c1O,0.227 µM,0.684 µM,2.63 µM,10.8 µM,2.28 µM,7.14 µM,0.365 µM,8.21 µM,–,–,0.386 µM,5.56 µM,0.155 µM,0.555 µM,0.593 µM,11.8 µM,0.268 µM,3.76 µM,0.437 µM,7.46 µM
C[C@@H]1CC[C@@]2(C)OC(c3ccccc3)[C@H](CO)N2C1=O (some centres undefined),–,> 100 µM,–,> 100 µM,–,–,–,> 100 µM,–,> 100 µM,–,> 100 µM,–,> 100 µM,–,–,–,> 100 µM,–,> 100 µM
N#CC(Sc1ccccc1)C(N)=O (centres undefined),–,> 100 µM,–,–,–,> 100 µM,–,> 100 µM,–,> 100 µM,–,> 100 µM,–,> 100 µM,–,–,–,> 100 µM,–,> 100 µM
